Where two headings read alike, the source gives them in different places.
Experiments:
Assay in all cases: Checkerboard microdilution MIC of antibiotic with peptide
[1] = system: S. typhi SH5014; type: cell-based, Salmonella typhimurium
Procedure: (§1) The general assay medium was L broth (pH7.2) which contained 10 g of tryptone (Difco Laboratories, Detroit, Mich.), 5 g of yeast extract (Oxoid Ltd., Hampshire, UK) and 5 g of sodium chloride per liter. After an incubation time of 18 hours at 37° C., the growth of each microtiter well is measured with a Titerteck Multiscan spectrophotometer at 405 nm. Before reading, the spectrophotometer was blanked with corresponding uninoculated drug-containing media. The minimum inhibitory concentration (MIC) of an antibiotic was defined as the lowest concentration of the antibiotic expressed in mg/l which reduced the growth of the target bacteria by ≥90% (MIC90).

[2] = system: Kl. pneumoniae 12854; type: cell-based
Procedure: as §1

[3] = system: E. cloa 12645; type: cell-based; details: Enterobacter cloacae, no peptide (None, 0)
Procedure: as §1

[4] = system: Ps. aeroginosa PAO1; type: cell-based; details: Pseudomonas aeruginosa, no peptide (None, 0)
Procedure: as §1

[5] = system: E. coli IH3080; type: cell-based; details: Escherichia coli, no peptide (None, 0)
Procedure: as §1

[6] = Experiment II, read-out: MIC Fusidic a.
[7] = Experiment I, read-out: MIC Rifampin
[8] = Experiment IV, read-out: MIC Erythrom.
[9] = Experiment III, read-out: MIC Novobiocin

Structure (SMILES): CC(=O)O[C@H]1C[C@@]2(C)[C@@H](C[C@@H](O)[C@H]3[C@@]4(C)CC[C@@H](O)[C@@H](C)[C@@H]4CC[C@@]32C)/C1=C(\CCC=C(C)C)C(=O)O [Fusidic a., fusidic acid]
- MIC ([1]; read-out: MIC Fusidic a.): > 300 mg/L
- MIC ([2]; Klebsiella pneumoniae, 12854, read-out: MIC Fusidic a.): > 300 mg/L
- MIC [3, 6]: > 300 mg/L
- MIC [4, 6]: > 300 mg/L
- MIC [5, 6]: 300 mg/L

Structure (SMILES): CO[C@H]1/C=C/O[C@@]2(C)Oc3c(C)c(O)c4c(O)c(c(/C=N/N5CCN(C)CC5)c(O)c4c3C2=O)NC(=O)/C(C)=C\C=C\[C@H](C)[C@H](O)[C@@H](C)[C@@H](O)[C@@H](C)[C@H](OC(C)=O)[C@@H]1C [Rifampin, rifampin]
- MIC ([1]; read-out: MIC Rifampin): 10 mg/L
- MIC ([2]; Klebsiella pneumoniae, 12854, read-out: MIC Rifampin): 10 mg/L
- MIC [3, 7]: 10 mg/L
- MIC [4, 7]: > 10 mg/L
- MIC [5, 7]: 10 mg/L

Structure (SMILES): CC[C@H]1OC(=O)[C@H](C)[C@@H](O[C@H]2C[C@@](C)(OC)[C@@H](O)[C@H](C)O2)[C@H](C)[C@@H](O[C@@H]2O[C@H](C)C[C@H](N(C)C)[C@H]2O)[C@](C)(O)C[C@@H](C)C(=O)[C@H](C)[C@@H](O)[C@]1(C)O [Erythrom., erythromycin]
- MIC ([1]; read-out: MIC Erythromycin.): 100 mg/L
- MIC ([2]; Klebsiella pneumoniae, 12854, read-out: MIC Erythrom.): > 100 mg/L
- MIC [3, 8]: > 100 mg/L
- MIC [4, 8]: 100 mg/L
- MIC [5, 8]: 30 mg/L

Structure (SMILES): CO[C@@H]1[C@@H](OC(N)=O)[C@@H](O)[C@H](Oc2ccc3c(O)c(NC(=O)c4ccc(O)c(CC=C(C)C)c4)c(=O)oc3c2C)OC1(C)C [Novobiocin, novobiocin]
- MIC ([1]; read-out: MIC Novobiocin): 30 mg/L
- MIC ([2]; Klebsiella pneumoniae, 12854, read-out: MIC Novobiocin): 30 mg/L
- MIC [3, 9]: > 30 mg/L
- MIC [4, 9]: > 30 mg/L
- MIC [5, 9]: 30 mg/L

— patent publication US5834430A, “Potentiation of antibiotics” (BiosYnth S.r.l., priority 1995, dated 1998)
